In US20050197338A1, “Substituted pyrazole urea compounds for the treatment of inflammation” (priority 2003, published 2005):

Molecular target: T1, Rat IKK-2 (Rattus norvegicus, UniProt Q9QY78)
T1 sequence (Q9QY78 1-757): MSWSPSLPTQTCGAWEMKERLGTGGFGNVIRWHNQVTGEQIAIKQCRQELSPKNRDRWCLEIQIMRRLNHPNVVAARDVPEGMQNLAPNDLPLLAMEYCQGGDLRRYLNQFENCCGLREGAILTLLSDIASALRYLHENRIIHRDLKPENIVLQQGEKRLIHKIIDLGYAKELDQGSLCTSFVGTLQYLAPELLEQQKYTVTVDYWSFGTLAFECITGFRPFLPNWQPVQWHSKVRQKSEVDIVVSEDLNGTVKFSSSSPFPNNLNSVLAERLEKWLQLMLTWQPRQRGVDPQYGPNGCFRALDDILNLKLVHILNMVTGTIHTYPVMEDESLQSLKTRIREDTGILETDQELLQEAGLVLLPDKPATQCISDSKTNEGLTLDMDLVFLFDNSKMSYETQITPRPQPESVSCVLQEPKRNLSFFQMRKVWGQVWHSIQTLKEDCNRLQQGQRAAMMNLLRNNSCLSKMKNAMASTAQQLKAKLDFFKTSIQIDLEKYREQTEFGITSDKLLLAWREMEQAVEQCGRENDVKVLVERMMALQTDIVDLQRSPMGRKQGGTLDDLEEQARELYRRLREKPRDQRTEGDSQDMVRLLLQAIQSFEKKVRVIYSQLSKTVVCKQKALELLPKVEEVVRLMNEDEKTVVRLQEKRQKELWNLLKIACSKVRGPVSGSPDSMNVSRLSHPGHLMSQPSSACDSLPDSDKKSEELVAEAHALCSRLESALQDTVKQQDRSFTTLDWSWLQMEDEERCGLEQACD
Assay: Rat IKK-2 enzyme assay
Type: biochemical
Conditions: read-out: IC50 (μM) rIKK-2
Protocol: Kinase activity was measured using a biotinylated […] peptide (Gly-Leu-Lys-Lys-Glu-Arg-Leu-Leu-Asp-Asp-Arg-His-Asp-Ser32-Gly-Leu-Asp-Ser36-Met-Lys-Asp-Glu-Glu) (American Peptide Co.). 20 μL of the standard reaction mixture contained 5 μM biotinylated IκBα peptide, 0.1 μCi/reaction [γ-^33P] ATP (Amersham) (about 1×10^5 cpm), 1 μM ATP (Sigma), 1 mM DTT (Sigma), 2 mM MgCl2 (Sigma), 2 mM MnCl2 (Sigma), 10 mM NaF (Sigma), 25 mM Hepes (Sigma) buffer, pH. 7.6 and 20 μL enzyme solution (50 nM/rxn or 200 ng/rxn) and 10 μL inhibitor in a final volume of 50 μL. After incubation at 25° C. for 60 min, 150 μL resin was added to each well to stop the reaction. Resin was mixed and allowed to settle for 1 h and 50 μL of supernatant was removed to a Micolite 2 flat bottom plate (Dynex). 150 μL of scintillation fluid (Microscint 40) (Packard) was added to each well. Incorporation of [γ-^33P] ATP was measured using a Top-Count NXT (Packard).

Q: How did the IC50 turn out when Cc1cc(-n2cc(NC(N)=O)c(C(N)=O)n2)ccc1-c1ccc(O)c(F)c1 [Example 310, 1-(3′-fluoro-4′-hydroxy-2-methyl-biphenyl-4-yl)-4-ureido-1H-pyrazole-3-carboxylic acid amide] was run?
A: 0.095 µM

Q: NC(=O)Nc1cn(-c2cccc(C(F)(F)F)c2)nc1C(N)=O [Example 317, 1-(3-trifluoromethyl-phenyl)-4-ureido-1H-pyrazole-3-carboxylic acid amide] was tested. Which IC50 did it give?
A: 1.46 µM

Q: How did the IC50 turn out when NC(=O)Nc1cn(-c2ccc(-c3ccc(O)cc3)c(Cl)c2)nc1C(N)=O [Example 272, 4-[(aminocarbonyl)amino]-1-(2-chloro-4′-hydroxy-1,1′-biphenyl-4-yl)-1H-pyrazole-3-carboxamide] was run?
A: 0.167 µM

Q: With Cc1cc(-n2cc(NC(N)=O)c(C(N)=O)n2)ccc1-c1ccc(O)cc1 [Example 308, 1-(4′-hydroxy-2-methyl-biphenyl-4-yl)-4-ureido-1H-pyrazole-3-carboxylic acid amide] as the molecule, how does the IC50 read?
A: 0.099 µM

Q: CCCOc1ccc(-n2cc(NC(N)=O)c(C(N)=O)n2)cc1 [Example 332, 4-[(aminocarbonyl)amino]-1-(4-propoxyphenyl)-1H-pyrazole-3-carboxamide] was tested. Which IC50 did it give?
A: 1.08 µM

Q: Cc1cccc(-n2cc(NC(N)=O)c(C(N)=O)n2)c1 [Example 315, 1-m-tolyl-4-ureido-1H-pyrazole-3-carboxylic acid amide] was tested. Which IC50 did it give?
A: 0.632 µM

Q: Which IC50 does the source give for COc1ccc(F)cc1-c1ccc(-n2cc(NC(N)=O)c(C(N)=O)n2)cc1F [Example 269, 4-[(aminocarbonyl)amino]-1-(2,5′-difluoro-2′-methoxy-1,1′-biphenyl-4-yl)-1H-pyrazole-3-carboxamide] here?
A: 0.781 µM

Q: With NC(=O)COc1cc(F)ccc1-c1ccc(-n2cc(NC(N)=O)c(C(N)=O)n2)cc1F [Example 268, 4-[(aminocarbonyl)amino]-1-[2′-(2-amino-2-oxoethoxy)-2,4′-difluoro-1,1′-biphenyl-4-yl]-1H-pyrazole-3-carboxamide] as the molecule, how does the IC50 read?
A: 0.175 µM

Q: With Cc1cc(O)ccc1-c1ccc(-n2cc(NC(N)=O)c(C(N)=O)n2)cc1C [Example 309, 1-(4′-hydroxy-2,2′-dimethyl-biphenyl-4-yl)-4-ureido-1H-pyrazole-3-carboxylic acid amide] as the molecule, how does the IC50 read?
A: 0.086 µM

Q: For Cc1ccc(-n2cc(NC(N)=O)c(C(N)=O)n2)cc1F [Example 326, 4-[(aminocarbonyl)amino]-1-(3-fluoro-4-methylphenyl)-1H-pyrazole-3-carboxamide], which IC50 is on record?
A: 0.365 µM

Q: NC(=O)Nc1cn(-c2ccc(Br)c(O)c2)nc1C(N)=O [Example 276, 4-[(aminocarbonyl)amino]-1-(4-bromo-3-hydroxyphenyl)-1H-pyrazole-3-carboxamide] was tested. Which IC50 did it give?
A: 0.194 µM

Q: Which IC50 does the source give for Cc1ccccc1-n1cc(NC(N)=O)c(C(N)=O)n1 [Example 318, 1-o-tolyl-4-ureido-1H-pyrazole-3-carboxylic acid amide] here?
A: 8.52 µM

Q: How did the IC50 turn out when NC(=O)Nc1cn(-c2cccc(Cl)c2F)nc1C(N)=O [Example 273, 1-(3-chloro-2-fluoro-phenyl)-4-ureido-1 h-pyrazole-3-carboxylic acid amide] was run?
A: 0.203 µM

Q: For Cc1cc(-n2cc(NC(N)=O)c(C(N)=O)n2)ccc1S(=O)(=O)c1cccc(F)c1 [Example 312, 1-[4-(3-fluoro-benzenesulfonyl)-3-methyl-phenyl]-4-ureido-1H-pyrazole-3-carboxylic acid amide], which IC50 is on record?
A: 0.975 µM

Q: For NC(=O)Nc1cn(-c2ccc(S(=O)(=O)c3ccncc3)cc2)nc1C(N)=O [Example 295, 1-(3-carbamoyl-1-(4-(pyridin-4-ylsulfonyl)phenyl)-1H-pyrazol-4-yl)urea], which IC50 is on record?
A: 0.0369 µM

Q: Which IC50 does the source give for NC(=O)Nc1cn(-c2ccc(-c3ccc(O)cc3)c(F)c2)nc1C(N)=O [Example 264, 4-[(aminocarbonyl)amino]-1-(2-fluoro-4′-hydroxy-1,1′-biphenyl-4-yl)-1H-pyrazole-3-carboxamide] here?
A: 0.17 µM

Q: Which IC50 does the source give for Cc1cccc(Sc2ccc(-n3cc(NC(N)=O)c(C(N)=O)n3)cc2)c1 [Example 292, 1-(1-(4-(m-tolylthio)phenyl)-3-carbamoyl-1H-pyrazol-4-yl)urea] here?
A: 4.16 µM

Q: Which IC50 does the source give for Cc1cc(-n2cc(NC(N)=O)c(C(N)=O)n2)ccc1Sc1cccc(F)c1 [Example 311, 1-[4-(3-fluoro-phenylsulfanyl)-3-methyl-phenyl]-4-ureido-1H-pyrazole-3-carboxylic acid amide] here?
A: 2.33 µM

Q: Which IC50 does the source give for NC(=O)Nc1cn(-c2ccc(-c3ccc(O)c(F)c3)c(F)c2)nc1C(N)=O [Example 265, 4-[(aminocarbonyl)amino]-1-(2,3′-difluoro-4′-hydroxy-1,1′-biphenyl-4-yl)-1H-pyrazole-3-carboxamide] here?
A: 6.16 µM

Q: NC(=O)Nc1cn(-c2cccc3c2sc2ccccc23)nc1C(N)=O [Example 324, 4-[(aminocarbonyl)amino]-1-dibenzo[b,d]thien-4-yl-1H-pyrazole-3-carboxamide] was tested. Which IC50 did it give?
A: > 20 µM

Q: For CCCOc1ccc(-n2cc(NC(N)=O)c(C(N)=O)n2)cc1C [Example 306, 4-[(aminocarbonyl)amino]-1-(3-methyl-4-propoxyphenyl)-1H-pyrazole-3-carboxamide], which IC50 is on record?
A: 0.766 µM

Molecular target: T2, human IKK-2 (rhIKK-2 homodimer) (Homo sapiens, UniProt O14920)
T2 construct: FLAG (DYKDDDDKD) (C); made in house; host or cells: insect cells (baculovirus, pFastBac)
T2 sequence (O14920 1-756): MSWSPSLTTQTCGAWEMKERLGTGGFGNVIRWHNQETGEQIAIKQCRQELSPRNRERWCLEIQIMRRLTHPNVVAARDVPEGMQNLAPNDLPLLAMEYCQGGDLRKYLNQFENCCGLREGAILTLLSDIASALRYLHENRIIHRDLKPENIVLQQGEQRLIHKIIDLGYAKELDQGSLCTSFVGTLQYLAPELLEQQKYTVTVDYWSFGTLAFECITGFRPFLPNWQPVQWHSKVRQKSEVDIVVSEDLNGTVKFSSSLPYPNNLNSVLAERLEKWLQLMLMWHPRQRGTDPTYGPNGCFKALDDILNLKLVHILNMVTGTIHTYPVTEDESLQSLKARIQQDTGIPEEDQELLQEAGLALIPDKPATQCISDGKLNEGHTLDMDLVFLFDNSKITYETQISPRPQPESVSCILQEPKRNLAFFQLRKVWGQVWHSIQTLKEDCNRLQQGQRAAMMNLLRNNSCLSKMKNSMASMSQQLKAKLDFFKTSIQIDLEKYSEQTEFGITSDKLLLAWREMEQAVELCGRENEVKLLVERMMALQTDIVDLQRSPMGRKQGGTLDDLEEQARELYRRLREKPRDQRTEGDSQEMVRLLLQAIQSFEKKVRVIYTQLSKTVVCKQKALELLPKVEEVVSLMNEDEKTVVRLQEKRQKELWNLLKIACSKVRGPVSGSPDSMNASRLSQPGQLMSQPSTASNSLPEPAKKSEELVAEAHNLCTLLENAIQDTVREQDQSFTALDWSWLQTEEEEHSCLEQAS
Assay: IKK-2 Resin Enzyme Assay (Human IKK-2 Enzyme Assay)
Type: biochemical
Conditions: human IKK-2, resin enzyme assay; read-out: IC50 (μM) hIKK-2
Procedure, shortened: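 C-terminally FLAG-tagged human IKK-2 homodimer, baculovirus-expressed in insect cells and anti-FLAG purified. Reaction mix: 5 μM biotinylated IκBα peptide (Ser32/Ser36 region), 1 μM ATP with [γ-33P]ATP, 2 mM MgCl2, 2 mM MnCl2, 10 mM NaF, 1 mM DTT, 25 mM HEPES pH 7.6. Incubated 30 min at 25 °C; IC50 derived.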

Q: How did the IC50 turn out when CC(C)c1cccc(-c2ccc(-n3cc(C(N)=O)c(NC(N)=O)n3)cc2)c1 [Example 116] was run?
A: 11 µM

Q: With NC(=O)Nc1cn(-c2ccc([S+]([O-])C3CCCCC3)cc2)nc1C(N)=O (stereo not shown) [Example 191, 1-(3-carbamoyl-1-(4-(cyclohexylsulfinyl)phenyl)-1H-pyrazol-4-yl)urea] as the molecule, how does the IC50 read?
A: 2.54 µM

Q: With CCCCCc1ccc(-c2ccc(-n3cc(C(N)=O)c(NC(N)=O)n3)cc2)cc1 [Example 138] as the molecule, how does the IC50 read?
A: > 20 µM

Q: For CCOc1cc(-n2cc(NC(N)=O)c(C(N)=O)n2)ccc1-c1ccccc1OCC#N [Example 236, 4-[(aminocarbonyl)amino]-1-[2′-(cyanomethoxy)-2-ethoxy-1,1′-biphenyl-4-yl]-1H-pyrazole-3-carboxamide], which IC50 is on record?
A: 3.05 µM

Q: With CCOc1ccc(-c2cccc(-n3cc(NC(N)=O)c(C(N)=O)n3)c2)cc1 [Example 355, 4-[(aminocarbonyl)amino]-1-(4′-ethoxy-1,1′-biphenyl-3-yl)-1H-pyrazole-3-carboxamide] as the molecule, how does the IC50 read?
A: 6.15 µM

Q: How did the IC50 turn out when COc1ccc(-c2cccc(-n3cc(NC(N)=O)c(C(N)=O)n3)c2)cc1F [Example 359, 4-[(aminocarbonyl)amino]-1-(3′-fluoro-4′-methoxy-1,1′-biphenyl-3-yl)-1H-pyrazole-3-carboxamide] was run?
A: 1.18 µM

Q: With NC(=O)Nc1cn(-c2ccc(SC3CCCCC3)cc2)nc1C(N)=O [Example 189, 1-(3-carbamoyl-1-(4-(cyclohexylthio)phenyl)-1H-pyrazol-4-yl)urea] as the molecule, how does the IC50 read?
A: 1.04 µM
